Values joined by “and” are separate entries in the source; they are usually repeats but may differ in a detail not shown here. Identical values can stand only once.
Tests used:
[1] = system: relapsed/refractory multiple myeloma (RR–MM); experiment: Phase 1 trial of oral NMP: efficacy (IMWG response, progression-free and overall survival); type: in vivo, human
Protocol: This was a phase 1, open-label dose-escalation trial of orally administered NMP in patients with relapsed/refractory multiple myeloma (RR–MM). Eligible patients were ≥ 18 years old with Eastern Cooperative Oncology Group (ECOG) < 2 and histologically confirmed plasma cell myeloma defined by WHO 2008 criteria with measurable disease (defined by serum M-protein > 5 g/L, urine M-protein > 200 mg/24 h, involved serum free light chain > 100 mg/L or measurable soft tissue plasmacytoma). Patients were required to have relapsed following prior treatment and/or be refractory to or intolerant of both bortezomib and lenalidomide and must have undergone autologous stem cell transplant (unless deemed ineligible at investigator discretion). Exclusion criteria included: central nervous system involvement, active second malignancy within two years, uncontrolled medical conditions contraindicating an investigational agent due to inadequate organ function and concomitant exposure to anti-myeloma therapies.
The primary study endpoint was to determine the MTD of orally administered NMP in patients with RR–MM. Secondary endpoints included safety, PK analyses, IMWG defined response rate and exploratory immunological biomarkers. Adverse events were defined according to Common Terminology Criteria for Adverse Events (CTCAE version 4.03). Haematological DLTs were defined as grade 4 neutropenia unresponsive to G-CSF, grade 4 thrombocytopenia and febrile neutropenia. Non-haematological DLTs were grade 3 or higher and considered probably related to study drug and not attributable to disease progression and those resulting treatment delays greater than two weeks due to drug-related toxicity. Self-limited (< 24 h) gastrointestinal side effects (e.g. nausea, diarrhoea) responding to supportive measures were not classified as DLTs.
Pharmaceutical grade NMP stock solution (Ashland, Columbus, OH, USA) was diluted in ORA SWEET® SF (Medical Flavouring Systems, Vic, Australia) oral syrup vehicle and sterile water to a final concentration of 50 mg/mL and dispensed weekly in amber glass bottles for storage a room temperature. […] Intra-patient dose escalation at 100 mg increments was also permitted whereby the MTD had not been determined and the patient tolerated two consecutive cycles without DLT or an objective disease response. […]
The study was planned to recruit up to 20 patients, 15 in the dose finding cohort and five as a dose expansion. […] Time to progression was calculated from the first day of treatment to progression using the Kaplan–Meier method. Flow cytometry and gene expression data were analysed using GraphPad Prism (version 6.0; GraphPad Software, San Diego, CA). Data were analysed using Wilcoxon’s matched pairs signed rank test compared with baseline samples (*p < 0.05).

[2] = design: method as in PMID 9029058; details: human, after a single 100 mg oral dose of NMP; cited from earlier work
BET-bromodomains = system: BET-bromodomains; design: method as in PMID 26047594, PMID 24813887; details: suppression of LPS-induced TNFα-secretion, downregulation of cMYC expression; cited from earlier work
Healthy human volunteers = system: Healthy human volunteers; design: method as in PMID 9029058, PMID 15458014; details: up to 100 mg orally and 300 mg transdermally; cited from earlier work

CN1CCCC1=O [NMP, N-methyl-2-pyrrolidone]
Median overall survival ([1]; 13 RR–MM patients, 95% CI 9.7– > 44.5 months, median follow-up 43.5 months): 33.1 months and 33 months | Median progression-free survival ([1]; 13 RR–MM patients, range 29–539 days): 57 days | IMWG objective disease response (partial response or better), ORR ([1]; 13 patients, 95% CI 0–25%): 0% | best response of stable disease (SD), patients ([1]; nine of 13 patients, 95% CI 39–91%): 69% | amount found in urine [2]: 0.8% | concentration at which NMP phenocopies effects of BET-inhibitors (BET-bromodomains): 1 to 10 mM | acute adverse effects after a single dose (Healthy human volunteers): no acute adverse effects

Source: publication PMC9884426, “A phase 1 clinical trial of the repurposable acetyllysine mimetic, n-methyl-2-pyrrolidone (NMP), in relapsed or refractory multiple myeloma” (Clinical Epigenetics, 2023)
